Test results: patent US6914045B2, “Glycopeptide antibiotics” (Wyeth Holdings Corporation, priority 2001, dated 2005)
Values after ≈ are worked out from the molar mass of the structure shown.

How the values were obtained:
Assay in all cases: in vitro antibacterial evaluation, MIC by broth dilution
Assay type in all cases: cell-based
Streptococcus sp. = settings: broth dilution, 18 hours at 35° C.
In short: (§1)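 Test organisms, which included recent clinical isolates resistant to methicillin, penicillin and/or vancomycin, were inoculated at 5×10^5 CFU/mL into Muller-Hinton II […] containing antibiotic at 64-0.06 μg/mL. Minimum inhibitory concentrations were then read as the lowest level inhibiting growth.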

Enterococcus sp. = settings: broth dilution, 18 hours at 35° C.
In short: as §1

Escherichia coli = settings: 18 hours at 35° C.
In short: as §1

Staphylococcus sp. = settings: broth dilution, 18 hours at 35° C.
In short: as §1

With `N=C1NCC(C(O)C2NC(=O)C(Cc3ccc(OC4OC(CO)C(OC5OC6COC7(OC6C6OC8(OC56)C5CC6CC(C5)CC8C6)C5CC6CC(C5)CC7C6)C(O)C4O)cc3)NC(=O)C(CC3CCCCC3)NC(=O)CNC(=O)C(CO)NC(=O)C(C(O)C3CNC(=N)N3C3OC(CO)C(O)C(O)C3O)NC2=O)N1` (centres unmarked) [Example 106b, Cyclo[3-cyclohexylalanyl-O-[4-O-[2,3:4,6-di-O-(2-adamantylidene)hexopyranosyl]hexopyranosyl]tyrosyl-3-(2-iminoimidazolidin-4-yl)seryl-3-(3-hexopyranosyl-2-iminoimidazolidin-4-yl)-serylserylglycyl]] the “MIC Streptococcus agalactiae (GC 4564)” value (Streptococcus sp.; Streptococcus agalactiae (GC 4564)) was 0.5 µg/mL (≈ 0.322 µM), the “MIC Streptococcus pneumoniae (ATCC 6301)” value (Streptococcus sp.; Streptococcus pneumoniae (ATCC 6301)) was 0.5 µg/mL (≈ 0.322 µM) and the “MIC Streptococcus pneumoniae (GC 1894)” value (Streptococcus sp.; Streptococcus pneumoniae (GC 1894)) was under 0.12 µg/mL. For the same compound, the “MIC Streptococcus pneumoniae (GC 4565)” value (Streptococcus sp.; Streptococcus pneumoniae (GC 4565)) was 0.5 µg/mL (≈ 0.322 µM), the “MIC Streptococcus pyogenes (GC 4563)” value (Streptococcus sp.; Streptococcus pyogenes (GC 4563)) was 0.5 µg/mL (≈ 0.322 µM) and the “MIC Streptococcus pneumoniae (ATCC 6301)” value (Streptococcus sp.; strain ATCC 6301) was 0.5 µg/mL (≈ 0.322 µM). For the same compound, the “MIC Streptococcus pneumoniae (GC 1894)” value (Streptococcus sp.; strain GC 1894) was under 0.12 µg/mL, the “MIC Streptococcus pyogenes (GC 4563)” value (Streptococcus sp.; strain GC 4563) was 0.5 µg/mL (≈ 0.322 µM) and the “MIC Streptococcus agalactiae (GC 4564)” value (Streptococcus sp.; strain GC 4564) was 0.5 µg/mL (≈ 0.322 µM). The “MIC Streptococcus pneumoniae (GC 4565)” value (Streptococcus sp.; strain GC 4565) was 0.5 µg/mL (≈ 0.322 µM), the “MIC Enterococcus avium (GC 4558)” value (Enterococcus sp.; Enterococcus avium (GC 4558)) was 4 µg/mL (≈ 2.58 µM) and the “MIC Enterococcus faecalis (ATCC 29212)” value (Enterococcus sp.; Enterococcus faecalis (ATCC 29212)) was 8 µg/mL (≈ 5.16 µM). For the same compound, the “MIC Enterococcus faecalis (GC 2242)” value (Enterococcus sp.; Enterococcus faecalis (GC 2242)) was 8 µg/mL (≈ 5.16 µM), the “MIC Enterococcus faecalis (GC 2691)” value (Enterococcus sp.; Enterococcus faecalis (GC 2691)) was 16 µg/mL (≈ 10.3 µM) and the “MIC Enterococcus faecalis (GC 3059)” value (Enterococcus sp.; Enterococcus faecalis (GC 3059)) was 16 µg/mL (≈ 10.3 µM). The “MIC Enterococcus faecalis (GC 4552)” value (Enterococcus sp.; Enterococcus faecalis (GC 4552)) was 8 µg/mL (≈ 5.16 µM), the “MIC Enterococcus faecalis (GC 4553)” value (Enterococcus sp.; Enterococcus faecalis (GC 4553)) was 8 µg/mL (≈ 5.16 µM) and the “MIC Enterococcus faecalis (GC 4554)” value (Enterococcus sp.; Enterococcus faecalis (GC 4554)) was 16 µg/mL (≈ 10.3 µM). The “MIC Enterococcus faecalis (GC 6189)” value (Enterococcus sp.; Enterococcus faecalis (GC 6189)) was 8 µg/mL (≈ 5.16 µM), the “MIC Enterococcus faecium (GC 2243)” value (Enterococcus sp.; Enterococcus faecium (GC 2243)) was 8 µg/mL (≈ 5.16 µM) and the “MIC Enterococcus faecium (GC 4556)” value (Enterococcus sp.; Enterococcus faecium (GC 4556)) was 8 µg/mL (≈ 5.16 µM). For the same compound, the “MIC Enterococcus faecium (GC 4557)” value (Enterococcus sp.; Enterococcus faecium (GC 4557)) was 4 µg/mL (≈ 2.58 µM), the “MIC Enterococcus faecalis (ATCC 29212)” value (Enterococcus sp.; strain ATCC 29212) was 8 µg/mL (≈ 5.16 µM) and the “MIC Enterococcus faecalis (GC 2242)” value (Enterococcus sp.; strain GC 2242) was 8 µg/mL (≈ 5.16 µM). For the same compound, the “MIC Enterococcus faecium (GC 2243)” value (Enterococcus sp.; strain GC 2243) was 8 µg/mL (≈ 5.16 µM), the “MIC Enterococcus faecalis (GC 2691)” value (Enterococcus sp.; strain GC 2691) was 16 µg/mL (≈ 10.3 µM) and the “MIC Enterococcus faecalis (GC 3059)” value (Enterococcus sp.; strain GC 3059) was 16 µg/mL (≈ 10.3 µM). The “MIC Enterococcus faecalis (GC 4552)” value (Enterococcus sp.; strain GC 4552) was 8 µg/mL (≈ 5.16 µM), the “MIC Enterococcus faecalis (GC 4553)” value (Enterococcus sp.; strain GC 4553) was 8 µg/mL (≈ 5.16 µM) and the “MIC Enterococcus faecalis (GC 4554)” value (Enterococcus sp.; strain GC 4554) was 16 µg/mL (≈ 10.3 µM). For the same compound, the “MIC Enterococcus faecium (GC 4556)” value (Enterococcus sp.; strain GC 4556) was 8 µg/mL (≈ 5.16 µM), the “MIC Enterococcus faecium (GC 4557)” value (Enterococcus sp.; strain GC 4557) was 4 µg/mL (≈ 2.58 µM) and the “MIC Enterococcus avium (GC 4558)” value (Enterococcus sp.; strain GC 4558) was 4 µg/mL (≈ 2.58 µM). For the same compound, the “MIC Enterococcus faecalis (GC 6189)” value (Enterococcus sp.; strain GC 6189) was 8 µg/mL (≈ 5.16 µM), the “MIC Escherichia coli (ATCC 25922)” value (Escherichia coli; strain ATCC 25922) was 64 µg/mL (≈ 41.2 µM) and the “MIC Escherichia coli (GC 4559)” value (Escherichia coli; strain GC 4559) was 32 µg/mL (≈ 20.6 µM). The “MIC Escherichia coli (GC 4560)” value (Escherichia coli; strain GC 4560) was 8 µg/mL (≈ 5.16 µM), the “MIC Coagulase Negative Staphylococcus (GC 4547)” value (Staphylococcus sp.) was 8 µg/mL (≈ 5.16 µM) and the “MIC Coagulase Negative Staphylococcus (GC 4548)” value (Staphylococcus sp.) was 4 µg/mL (≈ 2.58 µM). For the same compound, the “MIC Coagulase Negative Staphylococcus (GC 4549)” value (Staphylococcus sp.) was 4 µg/mL (≈ 2.58 µM), the “MIC Coagulase Negative Staphylococcus (GC 4551)” value (Staphylococcus sp.) was 8 µg/mL (≈ 5.16 µM) and the “MIC Staphylococcus aureus (ATCC 29213)” value (Staphylococcus sp.) was 8 µg/mL (≈ 5.16 µM). For the same compound, the “MIC Staphylococcus aureus (GC 1131)” value (Staphylococcus sp.) was 8 µg/mL (≈ 5.16 µM), the “MIC Staphylococcus aureus (GC 3051)” value (Staphylococcus sp.) was 8 µg/mL (≈ 5.16 µM) and the “MIC Staphylococcus aureus (GC 3053)” value (Staphylococcus sp.) was 8 µg/mL (≈ 5.16 µM). The “MIC Staphylococcus aureus (GC 4541)” value (Staphylococcus sp.) was 16 µg/mL (≈ 10.3 µM), the “MIC Staphylococcus aureus (GC 4542)” value (Staphylococcus sp.) was 8 µg/mL (≈ 5.16 µM) and the “MIC Staphylococcus aureus (GC 4544)” value (Staphylococcus sp.) was 16 µg/mL (≈ 10.3 µM). For the same compound, the “MIC Staphylococcus aureus (GC 4545)” value (Staphylococcus sp.) was 8 µg/mL (≈ 5.16 µM), the “MIC Staphylococcus aureus-SMITH (GC 4543)” value (Staphylococcus sp.) was 8 µg/mL (≈ 5.16 µM) and the “MIC Staphylococcus haemolyticus (GC 4546)” value (Staphylococcus sp.) was 4 µg/mL (≈ 2.58 µM). The “MIC Staphylococcus haemolyticus (GC 4546)” value (Staphylococcus sp.; strain GC 4546) was 4 µg/mL (≈ 2.58 µM), the “MIC Coagulase Negative Staphylococcus (GC 4547)” value (Staphylococcus sp.; strain GC 4547) was 8 µg/mL (≈ 5.16 µM) and the “MIC Coagulase Negative Staphylococcus (GC 4548)” value (Staphylococcus sp.; strain GC 4548) was 4 µg/mL (≈ 2.58 µM). For the same compound, the “MIC Coagulase Negative Staphylococcus (GC 4549)” value (Staphylococcus sp.; strain GC 4549) was 4 µg/mL (≈ 2.58 µM), the “MIC Coagulase Negative Staphylococcus (GC 4551)” value (Staphylococcus sp.; strain GC 4551) was 8 µg/mL (≈ 5.16 µM) and the “MIC Staphylococcus aureus-SMITH (GC 4543)” value (Staphylococcus sp.; strain SMITH GC 4543) was 8 µg/mL (≈ 5.16 µM). For the same compound, the “MIC Staphylococcus aureus (ATCC 29213)” value (Staphylococcus sp.; strain ATCC 29213) was 8 µg/mL (≈ 5.16 µM), the “MIC Staphylococcus aureus (GC 1131)” value (Staphylococcus sp.; strain GC 1131) was 8 µg/mL (≈ 5.16 µM) and the “MIC Staphylococcus aureus (GC 3051)” value (Staphylococcus sp.; strain GC 3051) was 8 µg/mL (≈ 5.16 µM). For the same compound, the “MIC Staphylococcus aureus (GC 3053)” value (Staphylococcus sp.; strain GC 3053) was 8 µg/mL (≈ 5.16 µM), the “MIC Staphylococcus aureus (GC 4541)” value (Staphylococcus sp.; strain GC 4541) was 16 µg/mL (≈ 10.3 µM) and the “MIC Staphylococcus aureus (GC 4542)” value (Staphylococcus sp.; strain GC 4542) was 8 µg/mL (≈ 5.16 µM). The “MIC Staphylococcus aureus (GC 4544)” value (Staphylococcus sp.; strain GC 4544) was 16 µg/mL (≈ 10.3 µM) and the “MIC Staphylococcus aureus (GC 4545)” value (Staphylococcus sp.; strain GC 4545) was 8 µg/mL (≈ 5.16 µM).
